Source: PubChem BioAssay (NCI)
“And” between values parts separate entries of the source, which are not always exact repeats. Identical values can stand only once.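 Results reflect a 48-hour exposure of cells in 96-well plates to compound at five concentrations. Abbreviation: GI50, concentration required for 50% inhibition of growth. The concentration for full growth arrest is given as TGI.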

Tests used:
Experiment in all cases: DTP human tumour cell line panel, 48 h
[1] = test system: HCC-2998 colon
[2] = test system: U251 CNS
[3] = test system: SNB-75 CNS
[4] = test system: SNB-19 CNS
[5] = test system: NCI-H460 lung
[6] = test system: KM12 colon
[7] = test system: A498 renal
[8] = test system: SK-MEL-28 melanoma
[9] = test system: OVCAR-4 ovarian
[10] = test system: SK-MEL-2 melanoma

Row | SMILES | GI50 [1] [µM] | TGI [1] [µM] | GI50 [2] | TGI [2] [µM] | GI50 [3] | GI50 [4] [µM] | TGI [4] [µM] | GI50 [5] [µM] | TGI [5] [µM] | GI50 [6] [µM] | TGI [6] [µM] | GI50 [7] | TGI [7] [µM] | GI50 [8] | TGI [8] [µM] | GI50 [9] | TGI [9] [µM] | GI50 [10] | TGI [10] | TGI [3]
1 | COc1ccccc1CNCCCN1C(=O)c2ccc3c4c(ccc(c24)C1=O)C(=O)N(CCCCNCCCN)C3=O | 1.12 | 3.03 | 0.831 µM | 2.28 | 7.13 µM | 1.31 | 2.72 | 0.825 | 2.82 | 2.53 | 9.7 | 3.12 µM | 12.8 | 1.59 µM | 3.55 | 0.458 µM | 1.24 | 1.09 µM | 3.09 µM | 
2 | NC(=O)c1cccc(Nc2nccc(Nc3cccc4[nH]ncc34)n2)c1 | 14.7 | > 25 | 9.53 µM | > 25 | 4.58 µM | 12.7 | > 25 | 9.05 | > 25 | 9.78 | > 25 | 5 µM | 22.7 | 10.1 µM | > 25 | 13.2 µM | > 25 | 7.91 µM | 17.8 µM | 15.6 µM
3 | Cc1cccc(C)c1NC(=O)Nc1ccc(S(N)(=O)=O)cc1 |  | > 100 |  | > 100 |  |  | > 100 |  | > 100 |  | > 100 |  | > 100 |  | > 100 |  | > 100 |  | > 100 µM | > 100 µM
4 | COc1ccc(-c2c3c(n(C4OC(COC(C)=O)C(OC(C)=O)C(OC(C)=O)C4OC(C)=O)c(=S)c2C#N)CC(C)(C)CC3=O)cc1 (stereo not drawn) |  | > 100 | 34.9 µM and > 100 µM | > 100 | 25 µM and 67.8 µM |  | > 100 |  | > 100 |  | > 100 | 42.1 µM and > 100 µM | > 100 | 42 µM and > 100 µM | > 100 | 45.4 µM and > 100 µM | > 100 | 26.3 µM and > 100 µM | 76.4 µM and > 100 µM | 97.9 µM and > 100 µM
5 | COc1nc(N)nc2c1ncn2C1OC(CO)C(O)C1O (stereo not drawn) | > 5000 | > 5000 | > 5000 µM | > 5000 | > 5000 µM | > 5000 | > 5000 | 1650 | > 5000 | > 5000 | > 5000 | > 5000 µM | > 5000 | 2280 µM | > 5000 | > 5000 µM | > 5000 | 2570 µM | > 5000 µM | > 5000 µM
6 | COc1cc(CNc2ccccc2C(=O)N2CCN(C(=O)c3cc(-c4cc(OC)c(OC)c(OC)c4)n4nc(-c5ccccc5)cc4n3)CC2)cc(OC)c1OC | 5.8 | > 100 | 3.37 µM | 70.3 | 1.98 µM | 6.73 | > 100 | 3.32 | > 100 | 2.78 | > 100 | 2.15 µM | 20.8 | 5.24 µM | > 100 | 4.37 µM | > 100 | 4.37 µM | > 100 µM | > 100 µM
7 | CNC(=O)Cc1nc(-c2cccc(NS(=O)(=O)c3c(F)cccc3F)c2F)c(-c2ccnc(Nc3ccccc3)n2)s1 | 7.94 | 28.1 | 22.7 µM | > 50 | 0.6 µM | 14.3 | > 50 | 14.8 | > 50 | 14.2 | > 50 | 2.6 µM | 18.5 | 0.0185 µM | > 50 | > 33.8 µM | > 50 | 0.419 µM | > 46 µM | 49.8 µM
8 | CC(C)(C)CC(C)(C)NCc1cc(C(C)(C)C)cc(CNC(C)(C)CC(C)(C)C)c1O | 2.58 | 8.07 | 2.86 µM | 12.2 | 3.99 µM | 5.24 | 17.8 | 3.49 | 12.9 | 3.32 | 11.2 | 2.53 µM | 11.3 | 5.24 µM | 17.6 | 2.62 µM | 10.9 | 2.84 µM | 6.6 µM | 15.1 µM
9 | CN1C(=O)N[C@H]2[C@@H]3NC(=O)c4ccc(Br)n4[C@@H]3C[C@]21O | 0.13 | 1.75 | 0.0714 µM | 1.55 | 0.106 µM | 0.0351 | 0.576 | 0.0403 | 1.5 | 0.191 | 5.47 | 0.27 µM | 1.17 | 0.0317 µM | 0.262 | 0.093 µM | 1.56 | 0.0568 µM | 0.194 µM | 0.969 µM
10 | OCC(O)c1nc2ccc3[nH]ncc3c2c2c1CCCC2 (stereo not drawn) | 1.07 | 2.89 | 1.65 µM | > 50 | 0.849 µM | 1.58 | > 50 | 1.49 | 5.43 | 1.62 | > 50 | 0.876 µM | 1.75 | 1.22 µM | 3.76 | 2.49 µM | > 50 | 1.18 µM | 2.99 µM | 1.6 µM
11 | Cc1cc(C)c(NC(=S)NC(=O)c2ccccc2)cc1C |  | > 100 |  | > 100 |  |  | > 100 |  | > 100 |  | > 100 |  | > 100 |  | > 100 |  | > 100 |  | > 100 µM | > 100 µM
12 | CC(C)(C)C(=O)OCC1CCC(n2cnc3c(=O)[nH]c(N)nc32)O1 (stereo not drawn) |  | > 100 |  | > 100 |  |  | > 100 |  | > 100 |  | > 100 |  | > 100 |  | > 100 |  | > 100 |  | > 100 µM | > 100 µM
13 | COc1ccc(OC)c2c1[nH]c(=O)c1c3ncccc3cn21 | 4.44 | > 100 | 3.63 µM | 27.8 | 4.39 µM | 5.6 | > 100 | 1.61 | 3.39 | 4.23 | > 100 | 3.95 µM | > 100 |  |  | 3.56 µM | 17.2 | 7.17 µM | > 100 µM | 62 µM
